# Laboratory results reported in US20220331257A1, “LIQUID PHARMACEUTICAL COMPOSITIONS WITH STABLE DRUG RELEASE PROFILES” (Avadel Legacy Pharmaceuticals, LLC, priority 2019, published 2022).
# Legend:
# [1] = Osmolality of osmotic agent solutions (external phase); assay type: physicochemical; details: for Osmolality (extrapolated): third order polynomial fit
# From the text: In these attempts, the osmolality ratio of the composition was greater than 1 (measured at ambient temperature using a vapor pressure osmometer (model Vapro 5600 XR from ELITech/WESCOR) with a measurement range from 20 mosmol/kg to 3500 mosmol/kg).
# To determine the osmolality of the external phase of the compositions, it was assumed that only the osmotic agent contributed to the external phase's osmolality because, in addition to the osmotic agent, the external phase contained only minimal amounts of the suspending agent (e.g., 0.1-0.2 wt %). Measurements were obtained experimentally up to 40 wt % sorbitol and up to 50 wt % maltitol and then extrapolated to 60 wt % using a fit with a third order polynomial form (Table 2). Measurements were also obtained for a commercially available sorbitol solution, NEOSORB® 70/70B, containing 70% of dry substance and a minimum of 74% sorbitol in the dry substance (Table 2).
# [2] = Solubility of drugs in water (saturated solutions); details: saturated solution in water
# [3] = Saturation of the continuous phase by the drug; assay type: physicochemical; details: continuous phase 60 wt % maltitol, 0.2 wt % xanthan gum, about pH 7.2
# Description: A “continuous phase” or “liquid phase” as used herein, refers to the fluid or liquid phase of the suspension in which the particles are dispersed. The continuous phase may not be saturated by the drug. “Not saturated by the drug” as used herein refers to the amount of drug in the continuous phase being less than the amount at which the continuous phase is saturated with the drug at the temperature at which the saturation is measured. The temperature at which saturation is measured corresponds to the temperature at which stability is performed. In an example, saturation is measured at 30° C.
# [4] = Osmolality of saturated solutions of drugs in water (vapor pressure osmometer); assay type: physicochemical
Osmolality (experimental) ([1]; dry matter content 10% (wt %)) [mOsm/kg sol],Osmolality (extrapolated) ([1]; dry matter content 10% (wt %)) [mOsm/kg],Osmolality (experimental) ([1]; dry matter content 20% (wt %)) [mOsm/kg sol],Osmolality (extrapolated) ([1]; dry matter content 20% (wt %)) [mOsm/kg],Osmolality (experimental) ([1]; dry matter content 30% (wt %)) [mOsm/kg sol],Osmolality (extrapolated) ([1]; dry matter content 30% (wt %)) [mOsm/kg],Osmolality (experimental) ([1]; dry matter content 40% (wt %)) [mOsm/kg sol],Osmolality (extrapolated) ([1]; dry matter content 40% (wt %)) [mOsm/kg],Osmolality (extrapolated) ([1]; dry matter content 50% (wt %)) [mOsm/kg],Osmolality (extrapolated) ([1]; dry matter content 60% (wt %)) [mOsm/kg],Solubility ([2]; 25° C.) [mg/g],Osmolality of saturated solution ([4]; 25° C.) [mosmol/kg],SMILES,further results
599,610,1376,1364,2407,2426,4125,4122,6816,10777,,,"OC[C@@H](O)[C@@H](O)[C@H](O)[C@@H](O)CO [Sorbitol, sorbitol]",Osmolality (experimental) ([1]; dry matter content 5% (wt %)): 276 mOsm/kg sol; Osmolality (extrapolated) ([1]; dry matter content 5% (wt %)): 269 mOsm/kg; Osmolality (experimental) ([1]; dry matter content 15% (wt %)): 954 mOsm/kg sol; Osmolality (extrapolated) ([1]; dry matter content 15% (wt %)): 960 mOsm/kg; Osmolality (experimental) ([1]; dry matter content 25% (wt %)): 1844 mOsm/kg sol; Osmolality (extrapolated) ([1]; dry matter content 25% (wt %)): 1830 mOsm/kg
,,,,,,,,,,2.5,,"CC(=O)Oc1ccccc1C(=O)O [Aspirin, aspirin]",
,,,,,,,,,,,,COc1ccccc1OCC(O)CO (centres unmarked) [guaifenesin],saturation of the continuous phase by the drug [3]: 15.3 mg/g
,,,,,,,,,,14,74,"CC(=O)Nc1ccc(O)cc1 [Acetaminophen, acetaminophen]",Solubility ([2]; 40° C.): 20 mg/g; Osmolality of saturated solution ([4]; 40° C.): 112 mosmol/kg
,,,,,,,,,,18,84,"Cc1ccc(=O)n(-c2ccccc2)c1 [Pirfenidone, pirfenidone]",
333,330,779,791,1340,1322,2265,2277,3879,6538,,,OC[C@@H](O)[C@@H](O[C@H]1O[C@H](CO)[C@@H](O)[C@H](O)[C@H]1O)[C@H](O)[C@@H](O)CO [maltitol],Osmolality (experimental) ([1]; dry matter content 50% (wt %)): 3882 mOsm/kg sol
